Values joined by “and” are separate entries in the source; they are usually repeats but may differ in a detail not shown here. Equal entries are not always repeated. Inconclusive results and toxic doses are left out.
Test system: L1210 leukemia ip in BDF1 mice, survival T/C
Assay: NCI In Vivo Anticancer Drug Screen. Data for tumor model L1210 Leukemia (intraperitoneal) in B6D2F1 (BDF1) mice
Conditions: endpoint: mean survival time, higher = longer survival
How it was run: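 Survival endpoint. Drug-treated group vs vehicle group, expressed as T divided by C. Tumor passaged by transplantation.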

[1] = dose: 100.0 mg/kg/injection, schedule: Q01DX001 (ip), vehicle: saline
[2] = dose: 200.0 mg/kg/injection, schedule: Q01DX001 (ip), vehicle: saline
[3] = dose: 400.0 mg/kg/injection, schedule: Q01DX001 (ip), vehicle: saline
[4] = dose: 100.0 mg/kg/injection, schedule: Q04DX003 (ip), vehicle: Klucel (hydroxypropylcellulose) (HPC)
[5] = dose: 200.0 mg/kg/injection, schedule: Q04DX003 (ip), vehicle: Klucel (hydroxypropylcellulose) (HPC)
[6] = dose: 400.0 mg/kg/injection, schedule: Q04DX003 (ip), vehicle: Klucel (hydroxypropylcellulose) (HPC)
[7] = dose: 100.0 mg/kg/injection, schedule: Q01DX001 (ip), vehicle: carboxymethylcellulose (CMC)
[8] = dose: 200.0 mg/kg/injection, schedule: Q01DX001 (ip), vehicle: carboxymethylcellulose (CMC)
[9] = dose: 400.0 mg/kg/injection, schedule: Q01DX001 (ip), vehicle: carboxymethylcellulose (CMC)
[10] = dose: 100.0 mg/kg/injection, schedule: Q04DX003 (ip), vehicle: saline
[11] = dose: 200.0 mg/kg/injection, schedule: Q04DX003 (ip), vehicle: saline
[12] = dose: 400.0 mg/kg/injection, schedule: Q04DX003 (ip), vehicle: saline
[13] = dose: 50.0 mg/kg/injection, schedule: Q01DX001 (ip), vehicle: carboxymethylcellulose (CMC)

In the case of `CNC(=S)NC1CC(OC2CC(O)(C(C)=O)Cc3c(O)c4c(c(O)c32)C(=O)c2c(OC)cccc2C4=O)OC(C)C1O` (configuration not stated), the T/C (dose: 2.0 mg/kg/injection, schedule: Q04DX003 (ip), vehicle: water) is reported as 107 % of control, the T/C (dose: 3.12 mg/kg/injection, schedule: Q01DX009 (ip), vehicle: saline with Tween-80) is reported as 115 % of control and the T/C (dose: 4.0 mg/kg/injection, schedule: Q04DX003 (ip), vehicle: water) is reported as 106 % of control. The T/C (dose: 6.25 mg/kg/injection, schedule: Q01DX009 (ip), vehicle: saline with Tween-80) was 120 % of control, the T/C (dose: 8.0 mg/kg/injection, schedule: Q04DX003 (ip), vehicle: water) was 107 % of control and the T/C (dose: 12.5 mg/kg/injection, schedule: Q04DX003 (ip), vehicle: saline with Tween-80) was 108 % of control. The T/C (dose: 16.0 mg/kg/injection, schedule: Q04DX003 (ip), vehicle: water) was 109 % of control and 110 % of control, the T/C (dose: 25.0 mg/kg/injection, schedule: Q04DX003 (ip), vehicle: saline with Tween-80) was 124 % of control and the T/C (dose: 32.0 mg/kg/injection, schedule: Q04DX003 (ip), vehicle: water) was 116 % of control. The T/C (dose: 50.0 mg/kg/injection, schedule: Q04DX003 (ip), vehicle: saline with Tween-80) was 121 % of control, the T/C (dose: 64.0 mg/kg/injection, schedule: Q04DX003 (ip), vehicle: water) was 110 % of control and the T/C (dose: 125.0 micrograms/kg/injection, schedule: Q04DX003 (ip), vehicle: water) was 96 % of control. The T/C (dose: 250.0 micrograms/kg/injection, schedule: Q04DX003 (ip), vehicle: water) was 103 % of control, the T/C (dose: 500.0 micrograms/kg/injection, schedule: Q04DX003 (ip), vehicle: water) was 102 % of control and the T/C (dose: 1000.0 micrograms/kg/injection, schedule: Q04DX003 (ip), vehicle: water) was 103 % of control. For the same compound, the T/C (dose: 2000.0 micrograms/kg/injection, schedule: Q04DX003 (ip), vehicle: water) was 98 % of control.
With `c1cc[c]([Pb]([S]c2ncnc3c2nc[n]3[Pb]([c]2ccccc2)([c]2ccccc2)[c]2ccccc2)([c]2ccccc2)[c]2ccccc2)cc1.c1cc[c]([Pb]([S]c2ncnc3nc[nH]c23)([c]2ccccc2)[c]2ccccc2)cc1` the T/C (dose: 5.0 mg/kg/injection, schedule: Q01DX001 (ip), vehicle: other) was 103 % of control and the T/C (dose: 10.0 mg/kg/injection, schedule: Q01DX001 (ip), vehicle: other) was 121 % of control.
`CC(Br)CNC(=O)c1ccc([N+](=O)[O-])cc1` (configuration not stated) was tested, and the T/C (dose: 75.0 mg/kg/injection, schedule: Q01DX009 (ip), vehicle: Klucel (hydroxypropylcellulose) (HPC)) was 107 % of control, the T/C (dose: 150.0 mg/kg/injection, schedule: Q01DX009 (ip), vehicle: Klucel (hydroxypropylcellulose) (HPC)) was 97 % of control and the T/C (dose: 300.0 mg/kg/injection, schedule: Q01DX009 (ip), vehicle: Klucel (hydroxypropylcellulose) (HPC)) was 101 % of control.
In the case of `Cc1ccc(NCCO)c2c(=O)c3ccccc3sc12`, the T/C [1] is reported as 101 % of control, the T/C [2] is reported as 101 % of control and the T/C [3] is reported as 89 % of control.
`CCCCCCCN(CCCCCCC)CC(O)c1c2ccccc2cc2c1ccc1ccccc12` (configuration not stated) was tested, and the T/C (dose: 100.0 mg/kg/injection, schedule: Q01DX009 (ip), vehicle: Klucel (hydroxypropylcellulose) (HPC)) was 91 % of control, the T/C [4] was 101 % of control and the T/C (dose: 200.0 mg/kg/injection, schedule: Q01DX009 (ip), vehicle: Klucel (hydroxypropylcellulose) (HPC)) was 104 % of control. For the same compound, the T/C [5] was 93 % of control and the T/C [6] was 93 % of control.
`NC(=S)N1CCOCC1` was tested, and the T/C (dose: 100.0 mg/kg/injection, schedule: Q04DX002 (ip), vehicle: saline) was 97 % of control, the T/C (dose: 200.0 mg/kg/injection, schedule: Q04DX002 (ip), vehicle: saline) was 101 % of control and the T/C (dose: 400.0 mg/kg/injection, schedule: Q04DX002 (ip), vehicle: saline) was 108 % of control.
For `N=c1ccc2cc3ccc4ccccc4c3n(O)c-2c1`, the T/C (dose: 100.0 mg/kg/injection, schedule: Q01DX001 (ip), vehicle: saline with Tween-80) was 113 % of control, the T/C (dose: 200.0 mg/kg/injection, schedule: Q01DX001 (ip), vehicle: saline with Tween-80) was 95 % of control and the T/C (dose: 400.0 mg/kg/injection, schedule: Q01DX001 (ip), vehicle: saline with Tween-80) was 113 % of control.
`O=C(Nc1ccc(S(=O)(=O)F)cc1)c1ccc(C(=O)Nc2ccc(S(=O)(=O)F)cc2)cc1` was tested, and the T/C [7] was 102 % of control, the T/C [8] was 101 % of control and the T/C [9] was 96 % of control.
With `CC(=O)Nc1cc(C(=O)Nc2ccc(C3=NCCN3)cc2)ccc1C(=O)Nc1ccc(C2=NCCN2)cc1` the T/C (dose: 7.5 mg/kg/injection, schedule: Q01DX Z (oral), vehicle: saline) was 103 % of control, the T/C (dose: 15.0 mg/kg/injection, schedule: Q01DX Z (ip), vehicle: saline) was 271 % of control and the T/C (dose: 15.0 mg/kg/injection, schedule: Q01DX Z (oral), vehicle: saline) was 105 % of control. The T/C (dose: 30.0 mg/kg/injection, schedule: Q01DX Z (oral), vehicle: saline) was 104 % of control, the T/C (dose: 60.0 mg/kg/injection, schedule: Q01DX Z (oral), vehicle: saline) was 105 % of control and the T/C (dose: 62.5 mg/kg/injection, schedule: Q## X009 (oral), vehicle: saline) was 97 % of control. The T/C (dose: 75.0 mg/kg/injection, schedule: Q01DX Z (oral), vehicle: saline) was 90 % of control, the T/C (dose: 125.0 mg/kg/injection, schedule: Q## X009 (oral), vehicle: saline) was 97 % of control and the T/C (dose: 150.0 mg/kg/injection, schedule: Q01DX Z (oral), vehicle: saline) was 86 % of control. For the same compound, the T/C (dose: 500.0 mg/kg/injection, schedule: Q## X009 (oral), vehicle: saline) was 101 % of control.
In the case of `O=C(C[N+]12CCC(O)C1C(CO)CC2)c1ccc(Br)cc1` (configuration not stated), the T/C [10] is reported as 96 % of control and the T/C [11] is reported as 89 % of control.
With `CCCCN(CCCC)CCC(=O)OCC` the T/C (dose: 100.0 mg/kg/injection, schedule: Q04DX003 (ip), vehicle: saline with Tween-80) was 94 % of control, the T/C (dose: 200.0 mg/kg/injection, schedule: Q04DX003 (ip), vehicle: saline with Tween-80) was 101 % of control and the T/C (dose: 400.0 mg/kg/injection, schedule: Q04DX003 (ip), vehicle: saline with Tween-80) was 89 % of control.
With `C#CC1(NC(=O)NC(C)(C)C)CCCCC1` the T/C (dose: 100.0 mg/kg/injection, schedule: Q04DX002 (ip), vehicle: saline with Tween-80) was 97 % of control, the T/C (dose: 200.0 mg/kg/injection, schedule: Q04DX002 (ip), vehicle: saline with Tween-80) was 97 % of control and the T/C (dose: 400.0 mg/kg/injection, schedule: Q04DX002 (ip), vehicle: saline with Tween-80) was 97 % of control.
In the case of `Cc1ccc(Cl)cc1NC(=O)OCCCl`, the T/C (dose: 100.0 mg/kg/injection, schedule: Q01DX009 (ip), vehicle: saline with Tween-80) is reported as 95 % of control, the T/C [10] is reported as 97 % of control and the T/C (dose: 200.0 mg/kg/injection, schedule: Q01DX009 (ip), vehicle: saline with Tween-80) is reported as 91 % of control. For the same compound, the T/C [11] was 100 % of control, the T/C (dose: 400.0 mg/kg/injection, schedule: Q01DX009 (ip), vehicle: saline with Tween-80) was 91 % of control and the T/C [12] was 95 % of control.
With `COc1ccc2c(c1)CCCCC2=O` the T/C [13] was 105 % of control, the T/C [7] was 102 % of control and the T/C [8] was 100 % of control. For the same compound, the T/C [9] was 102 % of control.
In the case of `Cc1[nH]c2ccccc2c1/C=C/c1c[nH]c2ccccc12`, the T/C [13] is reported as 93 % of control, the T/C [7] is reported as 91 % of control and the T/C [8] is reported as 98 % of control. For the same compound, the T/C [9] was 91 % of control.
For `C[n+]1ccc(/C=C/C(=O)Nc2ccccc2)cc1`, the T/C [4] was 104 % of control, the T/C [5] was 108 % of control and the T/C [6] was 98 % of control.
For `COc1ccc(/C=C2\N=C(c3ccccc3)OC2=O)cc1OC`, the T/C (dose: 50.0 mg/kg/injection, schedule: Q01DX001 (ip), vehicle: saline) was 105 % of control, the T/C [1] was 109 % of control and the T/C [10] was 96 % of control. For the same compound, the T/C [2] was 105 % of control, the T/C [11] was 100 % of control and the T/C [3] was 100 % of control. The T/C [12] was 96 % of control.
For `C=C(C)C12OC3(c4ccccc4)OC1C1C4OC4(CO)C(O)C4(O)C(=O)C(C)=CC4C1(O3)C(C)C2OC(=O)/C=C/C=C/c1ccccc1` (configuration not stated), the T/C (dose: 25.0 micrograms/kg/injection, schedule: Q01DX009 (ip), vehicle: alcohol) was 97 % of control, the T/C (dose: 50.0 micrograms/kg/injection, schedule: Q01DX009 (ip), vehicle: alcohol) was 105 % of control and the T/C (dose: 100.0 micrograms/kg/injection, schedule: Q01DX009 (ip), vehicle: alcohol) was 92 % of control. For the same compound, the T/C (dose: 200.0 micrograms/kg/injection, schedule: Q01DX009 (ip), vehicle: alcohol) was 92 % of control and the T/C (dose: 400.0 micrograms/kg/injection, schedule: Q01DX009 (ip), vehicle: alcohol) was 103 % of control.
`CC1c2cc(O)c(O)cc2CCN1C` (configuration not stated) was tested, and the T/C (dose: 75.0 mg/kg/injection, schedule: Q01DX001 (ip), vehicle: saline) was 104 % of control and the T/C (dose: 150.0 mg/kg/injection, schedule: Q01DX001 (ip), vehicle: saline) was 110 % of control.

Reference: PubChem BioAssay AID248 (DTP/NCI, 2004)
